Literature values, collected in patent US20230201385A1, “[…] OF BACTERIA AND VIRUSES” (MULTI-MAGNETICS INCORPORATED, priority 2020, published 2023).

Legend:
[1] = test system: Enterobacterales infections; details: murine models
[2] = dog, i.v.

SMILES | Detection of infections by PET [1] | Accumulation in cells (Enterobacterales) | Duration of acceptable bone visualization [2] | Mean standard uptake value (SUV) in bone ([2]; averaged over days 8-16) | Mean standard uptake value (SUV) in kidneys ([2]; averaged over days 8-16) | Mean standard uptake value (SUV) in liver ([2]; averaged over days 8-16) | Mean standard uptake value (SUV) in lungs ([2]; averaged over days 8-16)
OC[C@@H](O)[C@@H](O)[C@H](O)[C@@H]([18F])CO [^18F-FDS, 2-Deoxy-2[^18F]fluoro-D-sorbitol] | specifically detect Enterobacterales infections | accumulate in Enterobacterales but not in healthy mammalian or cancer cells |  |  |  |  | 
O=P([O-])([O-])O.O=P([O-])([O-])O.[89Zr+4] [^89Zr-phosphate] |  |  | 20 days | ~10 | ~3 | ~3 | ~3
